From ChEMBL document CHEMBL5236551, “Andrographolide and its derivatives: Current achievements and future perspectives” (Eur J Med Chem, 2021) come the findings set out here.

The test system of one experiment is Mus musculus. As to the kind of experiment: Anti-inflammatory activity in BALB/c mouse model of colitis assessed as suppression of DSS-induced NF-kappa-B p65 expression in colon tissue at 200 mg/kg, IG for 8 days relative to control. The format is functional. The note with it: po, 192 h, time 8 day.
A short description of experiment [1]: Inhibition of NF-kappa-B signaling pathway in human HeLa cells assessed as decrease in phosphorylated NF-kappaB p65 level treated for 4 hrs by Western blot analysis. The format is cell-based.
The subject of the next experiment is Escherichia coli. Nature of the experiment: Antibacterial activity against Escherichia coli assessed as bacterial growth inhibition incubated for 24 hrs. The class given is functional, organism-based.
In the next experiment the test system is Enterococcus faecalis. As to the kind of experiment: Antibacterial activity against Enterococcus faecalis assessed as bacterial growth inhibition incubated for 24 hrs. The class given is functional, organism-based.
Another experiment has as its system Staphylococcus aureus. As to the kind of experiment: Antibacterial activity against Staphylococcus aureus assessed as bacterial growth inhibition incubated for 24 hrs. The format is functional, organism-based.
The subject of experiment [2] is Human immunodeficiency virus 1. As to the kind of experiment: Antiviral activity against HIV-1 infected in human C8166 cells. The note with it: Human immunodeficiency virus 1, C8166. The format is functional, organism-based.
Experiment [3] deals with Rattus norvegicus. As to the kind of experiment: Anti-fibrotic activity in rat model of isoproterenol-induced myocardial fibrosis assessed as inhibition rate at 15 mg/kg relative to control. The class given is functional. The note with it: Myocardium.
Experiment [4] relates to Rattus norvegicus. Nature of the experiment: Anti-fibrotic activity in rat model of bleomycin-induced lung fibrosis assessed as inhibition rate at 250 mg/kg relative to control. The class given is functional.
Experiment [5] concerns Rattus norvegicus. As to the kind of experiment: Anti-fibrotic activity in rat model of unilateral ureteral obstruction-induced renal fibrosis assessed as inhibition rate at 0.15 mmol/Kg relative to control. The class given is functional. The note with it: Kidney.
The test system of a further experiment is P388. As to the kind of experiment: Cytotoxicity against mouse P388 cells assessed as cell growth inhibition by SRB assay. The class given is functional. The note with it: read-out: ED50 (the source's name).
Experiment [6] deals with MCF7. As to the kind of experiment: Cytotoxicity against human MCF7 cells assessed as cell growth inhibition by SRB assay. The format is functional. The note with it: read-out: ED50 (the source's name).
Another experiment relates to KB. Nature of the experiment: Cytotoxicity against human KB cells assessed as cell growth inhibition by SRB assay. The format is functional. The note with it: read-out: ED50 (the source's name).
Experiment [7] in a line: Cytotoxicity against human Lu1 cells assessed as cell growth inhibition by SRB assay. The class given is functional. The note with it: read-out: ED50 (the source's name).
For the next experiment, the system named is Col2. As to the kind of experiment: Cytotoxicity against human Col2 cells assessed as cell growth inhibition by SRB assay. The class given is functional. The note with it: read-out: ED50 (the source's name).
The nature of experiment [8]: Cytotoxicity against rat ASK cells assessed as cell growth inhibition by SRB assay. The format is functional. The note with it: read-out: ED50 (the source's name).
Experiment [9] in a line: Antimigratory activity against human LX2 cells assessed as inhibition rate at 5 uM relative to control. The format is functional. The note with it: LX-2.
Experiment [10] in a line: Antimigratory activity against Ang II-induced human Cardiac fibroblast cells assessed as inhibition rate at 0.63 uM relative to control. The class given is functional.
Experiment [11] is described as follows: Inhibition of TGF-beta1 induced mesenchymal transformation in human A549 cells assessed as inhibition rate at 0.63 uM relative to control. The format is functional.
A further experiment deals with K562. As to the kind of experiment: Antiproliferative activity against human K562 cells assessed as cell growth inhibition measured after 24 hrs by MTT assay. The format is functional, cell-based. The note with it: K562, 24 h.
For experiment [12], the system named is MCF7. Nature of the experiment: Antiproliferative activity against human MCF7 cells assessed as cell growth inhibition measured after 24 hrs by MTT assay. The format is functional, cell-based.
Experiment [13] concerns Rattus norvegicus. Nature of the experiment: Anti-inflammatory activity against egg white-induced paw edema in rat model assessed as detumescence rate measured after 6 hrs relative to control. The class given is functional.
A further experiment has as its system HCT-116. As to the kind of experiment: Antiproliferative activity against human HCT-116 cells assessed as cell growth inhibition measured after 24 hrs by MTT assay. The format is functional.
A further experiment has as its system HepG2. Nature of the experiment: Antiproliferative activity against human HepG2 cells assessed as cell growth inhibition measured after 48 hrs by MTT assay. The format is functional, cell-based. The note with it: HepG2, 48 h.
Another experiment concerns MGC-803. Nature of the experiment: Antiproliferative activity against human MGC-803 cells assessed as cell growth inhibition measured after 48 hrs by MTT assay. The note with it: MGC-803, 48 h. The format is functional, cell-based.
The test system of experiment [14] is MCF7. Nature of the experiment: Antiproliferative activity against human MCF7 cells assessed as cell growth inhibition measured after 48 hrs by MTT assay. The note with it: MCF7, 48 h. The format is functional, cell-based.
Another experiment deals with T-24. Nature of the experiment: Antiproliferative activity against human T24 cells assessed as cell growth inhibition measured after 48 hrs by MTT assay. The class given is functional, cell-based. The note with it: T-24, 48 h.
The nature of experiment [15]: Antiproliferative activity against human NTUB1 cells assessed as cell growth inhibition measured after 48 hrs by MTT assay. The class given is functional, cell-based. The note with it: NTUB1, 48 h.
Experiment [16] in a line: Antiproliferative activity against human HCT cell line assessed as cell growth inhibition measured after 48 hrs by MTT assay. The format is functional, cell-based.
For the next experiment, the system named is J82. As to the kind of experiment: Antiproliferative activity against human J82 cells assessed as cell growth inhibition measured after 48 hrs by MTT assay. The class given is functional, cell-based. The note with it: J82, 48 h.
For a further experiment, the system named is NB-4. As to the kind of experiment: Antiproliferative activity against human NB-4 cells assessed as cell growth inhibition measured after 48 hrs by MTT assay. The class given is functional, cell-based. The note with it: NB-4, 48 h.
For the next experiment, the system named is A549. As to the kind of experiment: Antiproliferative activity against human A549 cells assessed as cell growth inhibition measured after 48 hrs by MTT assay. The format is functional, cell-based. The note with it: A549, 48 h.

For the compound `C=C1CCC2[C@](C)(COC(C)=O)[C@H](OC(C)=O)CC[C@@]2(C)[C@@H]1C/C=C1/C(=O)OC[C@H]1OC(C)=O` (stereo partly specified), the inhibition in vivo at 200 mg/kg in the experiment with Mus musculus was 50.4%.
As for `C=C1CC[C@@H]2[C@](C)(CO)[C@H](O)CC[C@@]2(C)[C@@H]1C/C=C1/C(=O)OC[C@@H]1Oc1ccc([N+](=O)[O-])cc1OC`, in experiment [1], the EC50 was 2 µM.
`C=C1CCC2[C@](C)(CO)C(=O)CC[C@@]2(C)[C@@H]1C/C=C1/C(=O)OC[C@@H]1Oc1cccc2cccnc12` (stereo partly specified): the IC50 in the experiment on Escherichia coli was 27.9 µM; with Enterococcus faecalis, 9.1 µM; in the experiment with Staphylococcus aureus it was 27.6 µM.
In experiment [2], `C=C1CCC2[C@](C)(CO)/C(=N\O)CC[C@@]2(C)[C@@H]1/C=C/C1=CCOC1=O` (stereo partly specified) showed an IC50 of 40.9 µM.
For `C=C1CCC2[C@](C)(CO)[C@H](O)CC[C@@]2(C)[C@@H]1/C=C/C1=CC(=C\c2ccc(Cl)cc2)/OC1=O` (stereo partly specified), in the experiment on Rattus norvegicus [3], the inhibition in vivo at 15 mg/kg was above 90%. Besides, the inhibition in vivo at 250 mg/kg in the experiment on Rattus norvegicus [4] is above 85%. The inhibition in vivo at 150 µmol/kg in the experiment with Rattus norvegicus [5] was above 85%.
`C=C1CC[C@@H]2[C@](C)(CO[Si](C)(C)C(C)(C)C)[C@H](OC(C)=O)CC[C@@]2(C)[C@@H]1CC(OC(C)=O)C1=CCOC1=O` (stereo partly specified): the EC50 was found to be 0.55 µM in the experiment on P388; 2.13 µM in the experiment with MCF7 [6]; 2.35 µM in the experiment on KB; 2.09 µM in experiment [7]; 2 µM in the experiment on Col2; 1.98 µM in experiment [8].
Regarding `C[C@@]12CCC3[C@](C)(CO)[C@H](O)CC[C@@]3(C)[C@@H]1CC(C1=C/C(=C\c3ccc(Cl)cc3)OC1=O)O2` (stereo partly specified), the inhibition at 5 µM in experiment [9] is above 60%. Further, the inhibition at 0.63 µM in [10] was above 65%; in [11], above 70%.
Consider `C=C1CCC2[C@](C)(CO)[C@H](O)CC[C@@]2(C)[C@@H]1C/C=C1/C(=O)OC[C@@H]1Oc1cccc2cccnc12` (stereo partly specified), for which the IC50 with Escherichia coli was 21.6 µM; with Enterococcus faecalis it was 6.3 µM; with Staphylococcus aureus, 37.5 µM.
As for `C=C1CCC2[C@]3(C)COC(c4ccc(OCc5cn(-c6ccc(C(C)=O)cc6)nn5)cc4)O[C@@H]3CC[C@@]2(C)[C@@H]1C/C=C1/C(=O)OCC1O` (stereo partly specified), in the experiment on K562, the IC50 is 8 µM.
For the compound `C=C1CCC2[C@](C)(CO)[C@H](OC(=O)CCC(=O)OC(C)CCOc3no[n+]([O-])c3S(=O)(=O)c3ccccc3)CC[C@@]2(C)[C@@H]1/C=C/C1=CCOC1=O` (stereo partly specified), the IC50 in the experiment on MCF7 [12] (MCF7, 24 h) is 2.91 µM; with K562, 1.55 µM.
Turning to `C=C1CCC2[C@](C)(CO)[C@H](O)CC[C@@]2(C)[C@@H]1CCC1=CCOC1=O` (stereo partly specified), the “inhibition (INH)” value with Rattus norvegicus [13] amounted to 87.53%.
On to `C=C1CCC2[C@]3(C)COC(c4ccccc4Br)O[C@@H]3CC[C@@]2(C)[C@@H]1C/C=C1/C(=O)OC[C@H]1O` (stereo partly specified), for which the GI50 came out at 4.9 µM with HCT-116 and 5.3 µM with MCF7 [12] (MCF7, time 24 hrs).
Turning to `CC1=C2[C@H]3O[C@]34CC[C@@H]3[C@](C)(COC(=O)c5ccccc5)[C@H](OC(=O)c5ccccc5)CC[C@@]3(C)[C@@H]4[C@H]3O[C@@]23OC1=O`, the IC50 in the experiment with HepG2 worked out at 2.31 µM; in the experiment on MGC-803 it was 1.85 µM; with MCF7 [14], 1.21 µM; in the experiment on T-24, 1.04 µM; in [15] it was 0.55 µM; in experiment [16], 0.94 µM. For the same compound, the IC50 in the experiment with J82 worked out at 2.04 µM; in the experiment on NB-4, 0.87 µM; in the experiment with A549, 2.03 µM.
